Holding throughout (experiment): Kinase binding assay (kinase-tagged T7 phage, affinity beads, qPCR), Kd
For one experiment, the target named is T1, FGFR3 (V555M) (Homo sapiens, UniProt P22607, V555M).
T1 construct: made in house; host or cells: E. coli (BL21-derived), T7 phage
As to conditions: V555M mutant; read-out: FGFR3 (V555M) (Kd nM). An outline of the steps:
(§1)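 Readout was qPCR of kinase eluted from ligand-coated affinity beads after competition with test compound. Kinases were expressed as T7 phage fusions in E. coli. Binding constants were derived by non-linear least-squares Hill fitting, Hill slope −1.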

The target of a further experiment is T2, FGFR4 (Homo sapiens, UniProt P22455).
T2 construct: made in house; host or cells: E. coli (BL21-derived), T7 phage
T2 sequence (P22455 22-802): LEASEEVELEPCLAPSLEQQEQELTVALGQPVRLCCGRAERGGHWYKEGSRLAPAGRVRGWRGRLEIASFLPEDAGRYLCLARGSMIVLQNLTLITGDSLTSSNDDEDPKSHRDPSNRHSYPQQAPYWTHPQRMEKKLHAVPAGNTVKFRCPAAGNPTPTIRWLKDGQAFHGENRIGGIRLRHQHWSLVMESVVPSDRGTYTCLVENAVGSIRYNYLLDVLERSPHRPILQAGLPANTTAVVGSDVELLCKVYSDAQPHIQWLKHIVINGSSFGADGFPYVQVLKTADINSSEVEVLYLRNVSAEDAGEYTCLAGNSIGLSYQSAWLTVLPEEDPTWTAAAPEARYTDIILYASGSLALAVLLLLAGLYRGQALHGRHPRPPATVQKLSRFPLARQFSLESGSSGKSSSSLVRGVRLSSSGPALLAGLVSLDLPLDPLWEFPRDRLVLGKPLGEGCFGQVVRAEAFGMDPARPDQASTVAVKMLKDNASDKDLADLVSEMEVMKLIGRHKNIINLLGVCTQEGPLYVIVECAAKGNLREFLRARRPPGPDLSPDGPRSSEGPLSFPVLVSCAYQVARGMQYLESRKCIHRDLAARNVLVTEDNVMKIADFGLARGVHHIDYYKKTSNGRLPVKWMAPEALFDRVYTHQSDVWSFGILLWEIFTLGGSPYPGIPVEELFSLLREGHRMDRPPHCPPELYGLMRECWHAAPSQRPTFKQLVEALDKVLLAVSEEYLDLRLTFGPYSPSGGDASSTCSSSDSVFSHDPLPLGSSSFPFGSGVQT
As to conditions: read-out: FGFR4 (Kd nM). In short, it runs like this:
as §1

For a further experiment, the target named is T3, FGFR3 (Homo sapiens, UniProt P22607).
T3 construct: made in house; host or cells: E. coli (BL21-derived), T7 phage
T3 sequence (P22607 23-806): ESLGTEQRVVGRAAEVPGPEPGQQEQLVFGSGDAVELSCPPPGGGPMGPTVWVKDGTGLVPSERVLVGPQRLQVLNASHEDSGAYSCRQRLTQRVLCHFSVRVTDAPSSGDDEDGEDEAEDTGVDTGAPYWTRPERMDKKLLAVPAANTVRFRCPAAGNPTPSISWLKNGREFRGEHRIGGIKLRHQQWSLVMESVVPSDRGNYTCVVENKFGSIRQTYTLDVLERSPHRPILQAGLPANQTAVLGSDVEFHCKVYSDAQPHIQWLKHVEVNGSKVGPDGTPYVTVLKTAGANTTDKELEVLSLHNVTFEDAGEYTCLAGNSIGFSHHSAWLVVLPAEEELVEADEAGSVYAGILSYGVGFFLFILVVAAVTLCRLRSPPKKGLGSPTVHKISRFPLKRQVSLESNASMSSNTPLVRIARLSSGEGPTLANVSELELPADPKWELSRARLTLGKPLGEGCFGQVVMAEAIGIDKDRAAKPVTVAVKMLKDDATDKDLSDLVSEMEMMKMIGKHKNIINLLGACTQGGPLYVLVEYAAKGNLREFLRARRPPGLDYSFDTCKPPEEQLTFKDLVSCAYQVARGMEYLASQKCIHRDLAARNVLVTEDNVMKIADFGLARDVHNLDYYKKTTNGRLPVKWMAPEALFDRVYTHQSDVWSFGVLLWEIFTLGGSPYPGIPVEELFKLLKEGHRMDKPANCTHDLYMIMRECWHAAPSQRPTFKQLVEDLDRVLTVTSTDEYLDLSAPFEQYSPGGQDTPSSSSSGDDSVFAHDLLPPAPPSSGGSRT
The conditions noted are these: read-out: FGFR3 (Kd nM). An outline of the steps:
as §1

Another experiment has as its target T4, FGFR2 (Homo sapiens, UniProt P21802).
T4 construct: made in house; host or cells: E. coli (BL21-derived), T7 phage
The conditions noted are these: read-out: FGFR2 (Kd nM). In short, it runs like this:
as §1

The target of another experiment is T5, FGFR1 (Homo sapiens, UniProt P11362).
T5 construct: made in house; host or cells: E. coli (BL21-derived), T7 phage
T5 sequence (P11362 22-822): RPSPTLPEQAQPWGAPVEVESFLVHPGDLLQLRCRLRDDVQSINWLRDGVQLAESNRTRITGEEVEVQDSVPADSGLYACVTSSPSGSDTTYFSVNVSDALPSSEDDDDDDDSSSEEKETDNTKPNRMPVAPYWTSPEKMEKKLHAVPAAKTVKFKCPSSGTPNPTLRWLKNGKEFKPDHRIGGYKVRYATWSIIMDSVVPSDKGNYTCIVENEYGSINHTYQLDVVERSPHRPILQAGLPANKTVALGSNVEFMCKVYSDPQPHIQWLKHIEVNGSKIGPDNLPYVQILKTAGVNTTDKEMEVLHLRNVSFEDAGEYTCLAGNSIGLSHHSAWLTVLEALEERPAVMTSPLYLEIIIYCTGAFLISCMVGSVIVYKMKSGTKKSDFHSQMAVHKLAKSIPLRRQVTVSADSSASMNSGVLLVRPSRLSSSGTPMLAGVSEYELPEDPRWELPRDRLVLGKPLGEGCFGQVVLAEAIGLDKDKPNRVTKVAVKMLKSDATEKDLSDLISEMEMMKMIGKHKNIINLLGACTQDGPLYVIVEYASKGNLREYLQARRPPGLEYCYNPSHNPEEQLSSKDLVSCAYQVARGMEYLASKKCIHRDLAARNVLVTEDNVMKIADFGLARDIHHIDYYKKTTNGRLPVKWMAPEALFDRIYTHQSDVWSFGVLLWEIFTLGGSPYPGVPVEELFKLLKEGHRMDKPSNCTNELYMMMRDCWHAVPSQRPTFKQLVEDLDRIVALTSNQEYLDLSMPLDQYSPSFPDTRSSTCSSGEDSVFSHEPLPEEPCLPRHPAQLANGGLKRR
As to conditions: read-out: FGFR1 (Kd nM). In short, it runs like this: as §1

Where [1] appears, read: kinase binding assay, 11-point 3-fold dilution series.

Like-named read-outs stand apart in the source and are kept apart here.

Consider 19 molecules from patent publication US20250368666A1, “INDAZOLE COMPOUNDS” (TYRA BIOSCIENCES, INC., priority 2022, published 2025).

T4 sequence (P21802 22-821): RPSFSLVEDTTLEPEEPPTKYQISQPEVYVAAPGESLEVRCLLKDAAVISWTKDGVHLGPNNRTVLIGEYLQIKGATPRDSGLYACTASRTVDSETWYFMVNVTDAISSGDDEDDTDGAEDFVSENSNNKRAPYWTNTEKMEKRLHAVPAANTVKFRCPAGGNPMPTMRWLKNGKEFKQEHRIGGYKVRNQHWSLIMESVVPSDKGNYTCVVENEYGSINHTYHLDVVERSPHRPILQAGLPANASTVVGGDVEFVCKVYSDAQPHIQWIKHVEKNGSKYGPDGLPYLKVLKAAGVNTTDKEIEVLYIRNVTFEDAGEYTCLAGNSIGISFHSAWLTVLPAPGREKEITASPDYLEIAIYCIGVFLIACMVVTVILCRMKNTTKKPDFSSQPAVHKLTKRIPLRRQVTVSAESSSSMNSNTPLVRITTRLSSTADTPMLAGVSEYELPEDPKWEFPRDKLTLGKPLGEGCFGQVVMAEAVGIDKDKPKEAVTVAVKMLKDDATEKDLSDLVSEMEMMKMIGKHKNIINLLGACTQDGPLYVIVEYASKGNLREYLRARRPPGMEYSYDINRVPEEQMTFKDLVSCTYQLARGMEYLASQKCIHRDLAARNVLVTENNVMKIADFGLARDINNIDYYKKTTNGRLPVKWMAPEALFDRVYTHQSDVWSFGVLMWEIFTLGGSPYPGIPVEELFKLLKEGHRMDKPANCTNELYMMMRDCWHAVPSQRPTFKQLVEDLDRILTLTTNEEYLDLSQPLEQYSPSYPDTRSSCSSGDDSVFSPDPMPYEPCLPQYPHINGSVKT
T1 sequence (P22607 23-806 V555M): as the sequence (P22607 23-806) above, with V533M counted along it

With “3-[6-[3-(cyclobutoxy)- 3-methyl-azetidin-1- yl]-3-pyridy1]-5-[(1R)- 1-(3,5-dichloro-2- methyl-4- pyridyl)ethoxy]-1H- indazole [Example 75]”, the Kd at FGFR3 (V555M) lay within 1 to 50 nM; on FGFR4 it was 50 to 300 nM; on FGFR3, 1 to 50 nM; at FGFR2 it was 50 to 300 nM; at FGFR1 it was 300 to 1000 nM.

`C[C@@H](Oc1ccc2[nH]nc(-c3cnc(N4CC(C)(NC5CCC5)C4)c(C#N)c3)c2c1)c1c(Cl)cncc1Cl` [Example 2, (R)-2-(3-(cyclobutylamino)-3-methylazetidin-1-yl)-5-(5-(1-(3,5-dichloropyridin-4-yl)ethoxy)-1H-indazol-3-yl)nicotinonitrile]: the equilibrium dissociation constant (Kd) on FGFR3 (V555M) lay within 1 to 50 nM; at FGFR4, 1 to 50 nM; at FGFR3 it was 1 to 50 nM; on FGFR2, 50 to 300 nM; on FGFR1 it was 50 to 300 nM.

`COc1cc2[nH]nc(-c3cnc(N4CC5(CC5)C4)c(C#N)c3)c2cc1O[C@H](C)c1c(Cl)cncc1Cl` [Example 3, (R)-5-(5-(1-(3,5-dichloropyridin-4-yl)ethoxy)-6-methoxy-1H-indazol-3-yl)-2-(5-azaspiro[2.3]hexan-5-yl)nicotinonitrile]: the equilibrium dissociation constant (Kd) on FGFR3 (V555M) was 1 to 50 nM; on FGFR4, 1 to 50 nM; at FGFR3 it was 1 to 50 nM; on FGFR2, 300 to 1000 nM; at FGFR1, 50 to 300 nM.

`C[C@@H](Oc1cc2c(-c3cnc(N4CC5(CC5)C4)c(C#N)c3)n[nH]c2cc1F)c1c(Cl)cncc1Cl` [Example 5, (R)-5-(5-(1-(3,5-Dichloropyridin-4-yl)ethoxy)-6-fluoro-1H-indazol-3-yl)-2-(5-azaspiro[2.3]hexan-5-yl)nicotinonitrile]: the equilibrium dissociation constant (Kd) at FGFR3 (V555M) was 50 to 300 nM; on FGFR4, 1 to 50 nM; on FGFR3 it was 50 to 300 nM; at FGFR2, greater than 1000 nM; on FGFR1 it was greater than 1000 nM.

In the case of `CCNC1(C)CN(c2ncc(-c3n[nH]c4ccc(O[C@H](C)c5c(Cl)cnc(C)c5Cl)cc34)cc2C#N)C1` [Example 40, 5-[5-[(1R)-1-(3,5-dichloro-2-methyl-4-pyridyl)ethoxy]-1H-indazol-3-yl]-2-[3-(ethylamino)-3-methyl-azetidin-1-yl]pyridine-3-carbonitrile], the Kd fell in the range of 1 to 50 nM at FGFR3 (V555M); 1 to 50 nM on FGFR4; 1 to 50 nM on FGFR3; 50 to 300 nM on FGFR2; 50 to 300 nM at FGFR1.

On to `COc1cc2[nH]nc(-c3cnc(N4CCC4)c(F)c3)c2cc1O[C@H](C)c1c(Cl)cnc(C)c1Cl` [Example 58, 3-[6-(azetidin-1-yl)-5-fluoro-3-pyridyl]-5-[(1R)-1-(3,5-dichloro-2-methyl-4-pyridyl)ethoxy]-6-methoxy-1H-indazole], for which the Kd lay within 1 to 50 nM on FGFR3 (V555M); 1 to 50 nM at FGFR4; 1 to 50 nM at FGFR3; 1 to 50 nM on FGFR2; 50 to 300 nM on FGFR1.

On to `C[C@@H](Oc1cc2c(-c3ccc(N4CC(C)(NC5CCC5)C4)nc3)n[nH]c2cc1F)c1c(Cl)cncc1Cl` [Example 68, N-cyclobutyl-1-[5-[5-[(1R)-1-(3,5-dichloro-4-pyridyl)ethoxy]-6-fluoro-1H-indazol-3-yl]-2-pyridyl]-3-methyl-azetidin-3-amine], for which the Kd at FGFR3 (V555M), on FGFR4, on FGFR3, on FGFR2 and on FGFR1 was 1 to 50 nM each time.

As for `C[C@@H](Oc1ccc2[nH]nc(-c3ccc(N4CC(C)(CNS(C)(=O)=O)C4)nc3)c2c1)c1c(Cl)cncc1Cl` [Example 69, (R)-N-((1-(5-(5-(1-(3,5-dichloropyridin-4-yl)ethoxy)-1H-indazol-3-yl)pyridin-2-yl)-3-methylazetidin-3-yl)methyl)methane-sulfonamide], the Kd on FGFR3 (V555M), at FGFR4, on FGFR3, on FGFR2 and on FGFR1 was 1 to 50 nM throughout.

As for `COCCN(C)C1(C)CN(c2ncc(-c3n[nH]c4ccc(O[C@H](C)c5c(Cl)cncc5Cl)cc34)cn2)C1` [Example 79, (R)-1-(5-(5-(1-(3,5-dichloropyridin-4-yl)ethoxy)-1H-indazol-3-yl)pyrimidin-2-yl)-N-(2-methoxyethyl)-N,3-dimethylazetidin-3-amine], the equilibrium dissociation constant (Kd) on FGFR3 (V555M), at FGFR4, at FGFR3, at FGFR2 and on FGFR1 was 1 to 50 nM each time.

With `COc1cc2[nH]nc(-c3cnc(N4CC(C)(CNC(C)C)C4)nc3)c2cc1O[C@H](C)c1c(Cl)cncc1Cl` [Example 84, (R)-N-((1-(5-(5-(1-(3,5-dichloropyridin-4-yl)ethoxy)-6-methoxy-1H-indazol-3-yl)pyrimidin-2-yl)-3-methylazetidin-3-yl)methyl)propan-2-amine], the Kd at FGFR3 (V555M), on FGFR4, on FGFR3, at FGFR2 and at FGFR1 was 1 to 50 nM each time.

For the molecule `COCCN(C)C1(C)CN(c2ncc(-c3n[nH]c4ccc(O[C@H](C)c5c(Cl)cncc5Cl)cc34)cc2F)C1` [Example 85, (R)-1-(5-(5-(1-(3,5-dichloropyridin-4-yl)ethoxy)-1H-indazol-3-yl)-3-fluoropyridin-2-yl)-N-(2-methoxyethyl)-N,3-dimethylazetidin-3-amine], the Kd at FGFR3 (V555M), at FGFR4, at FGFR3, on FGFR2 and at FGFR1 was 1 to 50 nM in each case.

For the molecule `COc1cc2[nH]nc(-c3cnc(N4CC(C)(NCCO)C4)nc3)c2cc1O[C@H](C)c1c(Cl)cncc1Cl` [Example 86, (R)-2-((1-(5-(5-(1-(3,5-dichloropyridin-4-yl)ethoxy)-6-methoxy-1H-indazol-3-yl)pyrimidin-2-yl)-3-methylazetidin-3-yl)amino)ethan-1-ol], the Kd on FGFR3 (V555M), on FGFR4, at FGFR3, on FGFR2 and on FGFR1 was 1 to 50 nM throughout.

Turning to `C[C@@H](Oc1ccc2[nH]nc(-c3ccc(N4CC(C)(OCCO)C4)nc3)c2c1)c1c(Cl)cncc1Cl` [Example 92, (R)-2-((1-(5-(5-(1-(3,5-dichloropyridin-4-yl)ethoxy)-1H-indazol-3-yl)pyridin-2-yl)-3-methylazetidin-3-yl)oxy)ethan-1-ol], the dissociation constant Kd at FGFR3 (V555M), at FGFR4, on FGFR3, on FGFR2 and at FGFR1 was 1 to 50 nM throughout.

`C[C@@H](Oc1ccc2[nH]nc(-c3ccc(N4CC[C@@](N)(c5ccnn5C)C4)nn3)c2c1)c1c(Cl)cncc1Cl` [Example 417, (S)-1-(6-(5-((R)-1-(3,5-dichloropyridin-4-yl)ethoxy)-1H-indazol-3-yl)pyridazin-3-yl)-3-(1-methyl-1H-pyrazol-5-yl)pyrrolidin-3-amine]: the Kd at FGFR3 (setting [1]) and on FGFR1 (setting [1]) was 1 to 50 nM in each case.

Take `C[C@@H](Oc1ccc2[nH]nc(-c3ccc(N4CC[C@](N)(Cc5ccnn5C)C4)nn3)c2c1)c1c(Cl)cncc1Cl` [Example 424, (S)-1-(6-(5-((R)-1-(3,5-dichloropyridin-4-yl)ethoxy)-1H-indazol-3-yl)pyridazin-3-yl)-3-((1-methyl-1H-pyrazol-5-yl)methyl)pyrrolidin-3-amine]: the Kd on FGFR3 (setting [1]) and on FGFR1 (setting [1]) was 1 to 50 nM each time.

Turning to `C[C@@H](Oc1ccc2[nH]nc(-c3ccc(N4CC[C@@](N)(Cc5ccnn5C)C4)nn3)c2c1)c1c(Cl)cncc1Cl` [Example 425, (R)-1-(6-(5-((R)-1-(3,5-dichloropyridin-4-yl)ethoxy)-1H-indazol-3-yl)pyridazin-3-yl)-3-((1-methyl-1H-pyrazol-5-yl)methyl)pyrrolidin-3-amine], the Kd on FGFR3 (setting [1]) and at FGFR1 (setting [1]) was 1 to 50 nM each time.

As for `C[C@@H](Oc1ccc2[nH]nc(-c3ccc(N4CC[C@](N)(Cc5ccn(C)n5)C4)nn3)c2c1)c1c(Cl)cncc1Cl` [Example 426, (S)-1-(6-(5-((R)-1-(3,5-dichloropyridin-4-yl)ethoxy)-1H-indazol-3-yl)pyridazin-3-yl)-3-((1-methyl-1H-pyrazol-3-yl)methyl)pyrrolidin-3-amine], the dissociation constant Kd on FGFR3 (setting [1]) and on FGFR1 (setting [1]) was 1 to 50 nM throughout.

For the molecule `C[C@@H](Oc1ccc2[nH]nc(-c3ccc(N4CC[C@@](N)(Cc5ccn(C)n5)C4)nn3)c2c1)c1c(Cl)cncc1Cl` [Example 427, (R)-1-(6-(5-((R)-1-(3,5-dichloropyridin-4-yl)ethoxy)-1H-indazol-3-yl)pyridazin-3-yl)-3-((1-methyl-1H-pyrazol-3-yl)methyl)pyrrolidin-3-amine], the Kd at FGFR3 (setting [1]) and on FGFR1 (setting [1]) was 1 to 50 nM in each case.

As for `C[C@@H](Oc1ccc2[nH]nc(-c3cnc(N4CC[C@](N)(Cc5ccn(C)n5)C4)c(F)c3)c2c1)c1c(Cl)cncc1Cl` [Example 428, (S)-1-(5-(5-((R)-1-(3,5-dichloropyridin-4-yl)ethoxy)-1H-indazol-3-yl)-3-fluoropyridin-2-yl)-3-((1-methyl-1H-pyrazol-3-yl)methyl)pyrrolidin-3-amine], the dissociation constant Kd at FGFR3 (setting [1]) and at FGFR1 (setting [1]) was 1 to 50 nM throughout.
